Assay results reported in PubChem BioAssay AID248 (DTP/NCI, 2004).
“And” between values parts separate entries of the source, which are not always exact repeats. Identical values can stand only once. Toxic doses and inconclusive results are not listed. Square brackets hold non-standard residues; d marks the D form. Peptide text beside a SMILES is read from it. ξ: configuration not given here. ξV = CC(C)C(N)C(=O)O

Test system: L1210 leukemia ip in BDF1 mice, survival T/C
Experiment: NCI In Vivo Anticancer Drug Screen. Data for tumor model L1210 Leukemia (intraperitoneal) in B6D2F1 (BDF1) mice
Conditions: endpoint: mean survival time, higher = longer survival
Summary of the method: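 In this screen, tumor-bearing mice given compound are compared to those given vehicle, and their survival values are reported as a treated-to-control quotient.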

[1] = dose: 100.0 mg/kg/injection, schedule: Q01DX009 (ip), vehicle: saline
[2] = dose: 100.0 mg/kg/injection, schedule: Q04DX003 (ip), vehicle: saline
[3] = dose: 200.0 mg/kg/injection, schedule: Q01DX009 (ip), vehicle: saline
[4] = dose: 200.0 mg/kg/injection, schedule: Q04DX003 (ip), vehicle: saline
[5] = dose: 400.0 mg/kg/injection, schedule: Q01DX009 (ip), vehicle: saline
[6] = dose: 400.0 mg/kg/injection, schedule: Q04DX003 (ip), vehicle: saline
[7] = dose: 100.0 mg/kg/injection, schedule: Q04DX003 (ip), vehicle: Klucel (hydroxypropylcellulose) (HPC)
[8] = dose: 200.0 mg/kg/injection, schedule: Q04DX003 (ip), vehicle: Klucel (hydroxypropylcellulose) (HPC)
[9] = dose: 100.0 mg/kg/injection, schedule: Q01DX001 (ip), vehicle: saline
[10] = dose: 200.0 mg/kg/injection, schedule: Q01DX001 (ip), vehicle: saline
[11] = dose: 400.0 mg/kg/injection, schedule: Q01DX001 (ip), vehicle: saline
[12] = dose: 400.0 mg/kg/injection, schedule: Q04DX003 (ip), vehicle: Klucel (hydroxypropylcellulose) (HPC)

## N#CCc1nn(-c2ccccc2)c(N)c1C#N
dose: 25.0 mg/kg/injection, schedule: Q01DX001 (ip), vehicle: Klucel (hydroxypropylcellulose) (HPC)
  T/C: 93 % of control
dose: 50.0 mg/kg/injection, schedule: Q01DX001 (ip), vehicle: Klucel (hydroxypropylcellulose) (HPC)
  T/C: 100 % of control
dose: 100.0 mg/kg/injection, schedule: Q01DX001 (ip), vehicle: Klucel (hydroxypropylcellulose) (HPC)
  T/C: 107 % of control and 91 % of control
dose: 150.0 mg/kg/injection, schedule: Q01DX001 (ip), vehicle: Klucel (hydroxypropylcellulose) (HPC)
  T/C: 97 % of control

## NC(=O)C(O)C(Br)(Br)Br (configuration not stated)
[1]
  T/C: 94 % of control
[2]
  T/C: 97 % of control
[3]
  T/C: 95 % of control
[4]
  T/C: 93 % of control
[5]
  T/C: 90 % of control
[6]
  T/C: 97 % of control

## CCCCCCCCCCCCCCCCCCN1CNC(=O)NC1
[7]
  T/C: 93 % of control
[8]
  T/C: 101 % of control

## NCC1OC(n2cnc3c(=O)[nH]c(N)nc32)C(O)C1O (configuration not stated)
[9]
  T/C: 101 % of control
[10]
  T/C: 95 % of control
[11]
  T/C: 91 % of control

## COc1cccc(-c2ccc(N=N/C(=N/Nc3ccccc3)c3ccccc3)c(OC)c2)c1
dose: 50.0 mg/kg/injection, schedule: Q01DX001 (ip), vehicle: saline
  T/C: 101 % of control
[9]
  T/C: 95 % of control
[10]
  T/C: 97 % of control
[11]
  T/C: 89 % of control

## CC(C)CC(CC(C)C)NCC(C)OC(=O)c1ccc([N+](=O)[O-])cc1 (configuration not stated)
dose: 100.0 mg/kg/injection, schedule: Q01DX009 (ip), vehicle: water
  T/C: 93 % of control
dose: 100.0 mg/kg/injection, schedule: Q04DX003 (ip), vehicle: water
  T/C: 98 % of control
dose: 200.0 mg/kg/injection, schedule: Q01DX009 (ip), vehicle: water
  T/C: 88 % of control
dose: 200.0 mg/kg/injection, schedule: Q04DX003 (ip), vehicle: water
  T/C: 98 % of control
dose: 400.0 mg/kg/injection, schedule: Q01DX009 (ip), vehicle: water
  T/C: 86 % of control
dose: 400.0 mg/kg/injection, schedule: Q04DX003 (ip), vehicle: water
  T/C: 96 % of control

## Cc1cccc(N/N=C2\CCSc3ccccc32)c1
[7]
  T/C: 95 % of control
[8]
  T/C: 98 % of control
[12]
  T/C: 104 % of control

## NC(=O)C1=CN(CCc2ccccc2)c2ccccc2C1S(=O)(=O)O (configuration not stated)
dose: 75.0 mg/kg/injection, schedule: Q01DX001 (ip), vehicle: other
  T/C: 98 % of control
dose: 150.0 mg/kg/injection, schedule: Q01DX001 (ip), vehicle: other
  T/C: 94 % of control
dose: 300.0 mg/kg/injection, schedule: Q01DX001 (ip), vehicle: other
  T/C: 96 % of control

## CN(Cc1cnc2nc(N)nc(N)c2n1)c1ccc(C(=O)NC(CCC(=O)O)C(=O)O)cc1C(F)(F)F (configuration not stated)
dose: 5.0 mg/kg/injection, schedule: Q01DX009 (ip), vehicle: sodium bicarbonate
  T/C: 158 % of control
dose: 10.0 mg/kg/injection, schedule: Q01DX009 (ip), vehicle: sodium bicarbonate
  T/C: 168 % of control

## CON(C)S(=O)(=O)c1ccc(Cl)cc1
[7]
  T/C: 100 % of control
[8]
  T/C: 103 % of control
[12]
  T/C: 105 % of control

## CC(C)C(NC(=O)CNC(=O)CN)C(=O)O (stereo not drawn) (H-Gly-Gly-[ξV]-OH)
[1]
  T/C: 104 % of control
[2]
  T/C: 106 % of control
[3]
  T/C: 102 % of control
[4]
  T/C: 103 % of control
[5]
  T/C: 102 % of control
[6]
  T/C: 106 % of control

## COC1OC(C)C(NC(C)=O)C(OCc2ccccc2)C1OCc1ccccc1 (configuration not stated)
[7]
  T/C: 95 % of control
[8]
  T/C: 95 % of control
[12]
  T/C: 97 % of control

## O=C(Nc1ccc(C2=NCCN2)cc1)c1ccc(NC(=O)c2ccc(C3=NCCN3)cc2)cc1
dose: 1.88 mg/kg/injection, schedule: Q01DX Z (ip), vehicle: saline
  T/C: 101 % of control
dose: 3.75 mg/kg/injection, schedule: Q01DX Z (ip), vehicle: saline
  T/C: 106 % of control
dose: 7.5 mg/kg/injection, schedule: Q01DX Z (ip), vehicle: saline
  T/C: 117 % of control
dose: 15.0 mg/kg/injection, schedule: Q01DX009 (ip), vehicle: saline
  T/C: 119 % of control
dose: 30.0 mg/kg/injection, schedule: Q01DX009 (ip), vehicle: saline
  T/C: 190 % of control
dose: 30.0 mg/kg/injection, schedule: Q01DX Z (ip), vehicle: carboxymethylcellulose (CMC)
  T/C: 203 % of control
dose: 50.0 mg/kg/injection, schedule: Q01DX007 (oral), vehicle: carboxymethylcellulose (CMC)
  T/C: 103 % of control
dose: 60.0 mg/kg/injection, schedule: Q01DX009 (ip), vehicle: saline
  T/C: 197 % of control and 232 % of control
dose: 62.5 mg/kg/injection, schedule: Q## X010 (oral), vehicle: saline
  T/C: 101 % of control
dose: 100.0 mg/kg/injection, schedule: Q01DX007 (oral), vehicle: carboxymethylcellulose (CMC)
  T/C: 100 % of control
dose: 120.0 mg/kg/injection, schedule: Q01DX009 (ip), vehicle: saline
  T/C: 117 % of control
dose: 125.0 mg/kg/injection, schedule: Q## X010 (oral), vehicle: saline
  T/C: 102 % of control
dose: 200.0 mg/kg/injection, schedule: Q01DX007 (oral), vehicle: carboxymethylcellulose (CMC)
  T/C: 108 % of control
dose: 400.0 mg/kg/injection, schedule: Q01DX007 (oral), vehicle: carboxymethylcellulose (CMC)
  T/C: 94 % of control
dose: 500.0 mg/kg/injection, schedule: Q## X010 (oral), vehicle: saline
  T/C: 101 % of control
dose: 800.0 mg/kg/injection, schedule: Q01DX007 (oral), vehicle: carboxymethylcellulose (CMC)
  T/C: 101 % of control

## C[C@H](CCC[C@H](C)OS(=O)(=O)c1ccccc1)OS(=O)(=O)c1ccccc1
dose: 25.0 mg/kg/injection, schedule: Q01DX009 (ip), vehicle: saline with Tween-80
  T/C: 104 % of control and 112 % of control
dose: 50.0 mg/kg/injection, schedule: Q01DX009 (ip), vehicle: saline with Tween-80
  T/C: 107 % of control and 112 % of control (2×)
dose: 100.0 mg/kg/injection, schedule: Q01DX009 (ip), vehicle: saline with Tween-80
  T/C: 109 % of control
dose: 200.0 mg/kg/injection, schedule: Q01DX009 (ip), vehicle: saline with Tween-80
  T/C: 112 % of control (2×) and 117 % of control

## CNc1nc(Nc2ccc(C3=NCCN3)cc2)nc(Nc2ccc(C3=NCCN3)cc2)n1
dose: 1.25 mg/kg/injection, schedule: Q01DX015 (ip), vehicle: water
  T/C: 96 % of control
dose: 2.5 mg/kg/injection, schedule: Q01DX015 (ip), vehicle: water
  T/C: 96 % of control
dose: 5.0 mg/kg/injection, schedule: Q01DX015 (ip), vehicle: water
  T/C: 105 % of control
dose: 7.5 mg/kg/injection, schedule: Q01DX015 (ip), vehicle: water
  T/C: 152 % of control
dose: 10.0 mg/kg/injection, schedule: Q01DX015 (ip), vehicle: water
  T/C: 102 % of control
dose: 12.5 mg/kg/injection, schedule: Q01DX001 (ip), vehicle: water
  T/C: 105 % of control
dose: 13.3 mg/kg/injection, schedule: Q01DX Z (ip), vehicle: saline
  T/C: 115 % of control
dose: 15.0 mg/kg/injection, schedule: Q01DX015 (ip), vehicle: water
  T/C: 106 % of control
dose: 20.0 mg/kg/injection, schedule: Q01DX Z (ip), vehicle: saline
  T/C: 121 % of control
dose: 25.0 mg/kg/injection, schedule: Q01DX001 (ip), vehicle: water
  T/C: 103 % of control
dose: 30.0 mg/kg/injection, schedule: Q01DX015 (ip), vehicle: water
  T/C: 121 % of control
dose: 50.0 mg/kg/injection, schedule: Q01DX001 (ip), vehicle: water
  T/C: 100 % of control
dose: 60.0 mg/kg/injection, schedule: Q01DX Z (oral), vehicle: carboxymethylcellulose (CMC)
  T/C: 105 % of control
dose: 75.0 mg/kg/injection, schedule: Q01DX001 (ip), vehicle: water
  T/C: 115 % of control
dose: 120.0 mg/kg/injection, schedule: Q01DX Z (oral), vehicle: carboxymethylcellulose (CMC)
  T/C: 109 % of control
dose: 240.0 mg/kg/injection, schedule: Q01DX Z (oral), vehicle: carboxymethylcellulose (CMC)
  T/C: 96 % of control
dose: 480.0 mg/kg/injection, schedule: Q01DX Z (oral), vehicle: carboxymethylcellulose (CMC)
  T/C: 100 % of control

## COc1cc(C=O)c([N+](=O)[O-])cc1OC
[9]
  T/C: 102 % of control
[10]
  T/C: 102 % of control

## COc1ccc(C2C=CC(c3ccccc3)C(c3ccccc3)C2[N+](=O)[O-])cc1OC (configuration not stated)
dose: 100.0 mg/kg/injection, schedule: Q04DX003 (ip), vehicle: saline with Tween-80
  T/C: 96 % of control
dose: 200.0 mg/kg/injection, schedule: Q04DX003 (ip), vehicle: saline with Tween-80
  T/C: 94 % of control
dose: 400.0 mg/kg/injection, schedule: Q04DX003 (ip), vehicle: saline with Tween-80
  T/C: 104 % of control
